Source: patent publication US10179928B2, “Methods and tests for screening bacterial biofilms” (Helmholtz-Zentrum fuer Infektionsforschung GmbH, priority 2009, dated 2019)
Converted amounts (≈) assume the structure as drawn.

Tests used:
[1] = system: mixed bacterial communities from sputum specimens of two cystic fibrosis patients; experiment: Multi species biofilm susceptibility test of sputum specimens; assay type: cell-based; settings: one sputum sample; 1 mg ml−1
[2] = system: P. aeruginosa biofilms (PA14 and five clinical CF isolates); experiment: Biofilm susceptibility test: 96-well biofilm, BacLight (Syto9/PI) staining, automated CLSM, PHLIP biovolume analysis; assay type: cell-based, Pseudomonas aeruginosa
Procedure: The evening before the inoculation of the 96-well microtitre plates, inoculate bacteria from a single colony into 2 ml of LB medium in a tube and incubate the preculture in an orbital shaker (180 r.p.m.) at 37° C. overnight (˜16 h). The next morning, prepare a subculture from the overnight culture by diluting it with fresh LB medium to an OD600 of 0.02. The total volume of the inoculated medium depends on the number of replicates and the number of antibiotics or antibiotic dilutions to be tested for this isolate. II. Biofilm Growth Take off the lid of the designated number of sterile half-area μClear microtitre plates and use 100 μl per well of the diluted overnight culture(s) (Step 2) to inoculate the wells (testing different antibiotics, antibiotic dilutions and a minimum of two replicates for each combination). Thereafter, seal the plate(s) with an air-permeable cover foil (no lid) and incubate for 24 h at 37° C. in an incubator with humid atmosphere. III. Antibiotic-Treatment of the Biofilms After 24 h of growth, the biofilms within the wells of the microtitre plate were exposed to antibiotics. Stock solutions of the chosen antibiotics in LB medium were prepared and two-fold serial dilutions in fresh LB-medium were performed. […] To add the antibiotic dilutions to the microtitre plates, the plates were taken out of the incubator into a safety cabinet. The cover foil was removed and 40 μl antibiotic solution to the appropriate well (different antibiotics/concentrations) were added except to the control well(s) where only LB is added. IV. Staining of the Biofilms Prepare staining solution as described above (see REAGENT SETUP). […] Cover the microtitre plate with a fresh air-permeable foil and return the plate to the incubator. Continue incubation for 24 h at 37° C. before imaging. Immediately before microscopy (after ˜48 h total incubation time), remove the microtitre plate with treated biofilms from the incubator. V. Microscopy Automated Run or Manual Run When using the automated confocal Opera system, two positions at the center of each well are chosen automatically to acquire z-stacks of the biofilms. […] Focal planes are acquired starting from the bottom of the plate (position 0) with an interplane distance (z-step size) of 3 μm (using a 40×/0.85 numerical-aperture (NA) air objective). Syto9 is excited with a 488-nm laser and detected with a 540/75 nm band-pass emission filter, whereas PI is excited at 561 nm and detected with a 600/40 nm band-pass emission filter. If a non-automated confocal microscope is used, choose adequate filter settings for Syto9 and PI. To enhance comparability, biofilm images should be recorded at the center of a well. In a manual process, due to time reasons image acquisition might be reduced to one stack per well if 2-3 replicates of the same sample are present within the plate. VI. Data Analysis Computer Calculation Save the image stacks as single .bmp image files (image files may require conversion, for example, with MATLAB software). Batch-process all images using a background subtraction tool (for example, the ‘Subtract Background’ command in ImageJ). Following background subtraction, use an Otsu-thresholding algorithm to obtain thresholded binary images (8-bit format). Reduce the appearance of planktonic bacteria and outlying pixels with a noise filter (such as the ‘Remove Outliers’ command in ImageJ). Steps 11-13 are exemplified in Supplementary FIG. 1. Reassemble the image stacks from the individual processed binary images for each position and channel with Auto PHLIP-ML software. Use the MATLAB-based tool PHLIP (without connected volume filtration) to calculate descriptive parameters of biofilms (including biovolume, substratum coverage, area-to-volume ratio, spatial spreading and 3D colocalization) from the integrated total of each individual slice of a thresholded z-stack.

[3] = system: P. aeruginosa PA14 and five clinical strains; experiment: CFU determinations of whole well content (planktonic and biofilm bacteria); assay type: cell-based, Pseudomonas aeruginosa
[4] = system: P. aeruginosa PA14 and five clinical CF isolates (planktonic); experiment: Planktonic MIC determination with the semi-automated Vitek2 system; settings: for MIC: Pseudomonas aeruginosa, Vitek2
Procedure: Clinical isolates were recovered from the respiratory tracts of chronically infected people with CF at the Hannover Medical School and differed according to morphology and resistance profile. The MICs were determined by the use of the semi-automated Vitek2 system (Biomerieux).

colistin
biofilm responsiveness [1]: responsive

C[C@@H](O)[C@H]1C(=O)N2C(C(=O)O)=C(S[C@@H]3CN[C@H](C(=O)N(C)C)C3)[C@H](C)[C@H]12 [meropenem]
susceptibility under biofilm growth conditions ([2]; all strains): resistance | CFU counts ([3]; strain 5529 at 128 μg ml−1): ~10^6 cells per ml | MIC ([4]; isolate 5497, planktonic): ≤ 0.25 µg/mL | MIC ([4]; isolate 5520, planktonic): 0.5 µg/mL (≈ 1.3 µM) | MIC ([4]; isolate 5522, planktonic): 2 µg/mL (≈ 5.22 µM) | MIC ([4]; isolate 5524, planktonic): ≤ 0.25 µg/mL | MIC ([4]; isolate 5529, planktonic): 1 µg/mL (≈ 2.61 µM) | MIC ([4]; isolate PA14, planktonic): ≤ 0.25 µg/mL | MIC interpretation category ([4]; isolate 5497, Vitek2): S | MIC interpretation category ([4]; isolate 5520, Vitek2): S | MIC interpretation category ([4]; isolate 5522, Vitek2): S | MIC interpretation category ([4]; isolate 5524, Vitek2): S | MIC interpretation category ([4]; isolate 5529, Vitek2): S | MIC interpretation category ([4]; isolate PA14, Vitek2): S

CC(C)(O/N=C(\C(=O)N[C@@H]1C(=O)N2C(C(=O)[O-])=C(C[n+]3ccccc3)CS[C@H]12)c1csc(N)n1)C(=O)O [ceftazidime]
biofilm response ([2]; isolate 5497): ✓ (Biofilms were categorized as responsive (✓) if a consistent increase in the fraction of red and yellow (colocalized) fluorescenct biovolume (reaching ~ 80% of the total biovolume) within a given antibiotic concentration range was detected.) | RY biovolume of the total biovolume ([2]; strain 5497): ~80% | CFU count ([3]; strain 5497): 10^6 cells per ml | CFU count ([3]; strain PA14, without correlated imaging data): 10^6 cells per ml | MIC ([4]; isolate 5497, planktonic): 1 µg/mL (≈ 1.83 µM) | MIC ([4]; isolate 5520, planktonic): 4 µg/mL (≈ 7.32 µM) | MIC ([4]; isolate 5522, planktonic): 4 µg/mL (≈ 7.32 µM) | MIC ([4]; isolate 5524, planktonic): 2 µg/mL (≈ 3.66 µM) | MIC ([4]; isolate 5529, planktonic): ≤ 1 µg/mL | MIC ([4]; isolate PA14, planktonic): ≤ 1 µg/mL | MIC interpretation category ([4]; isolate 5497, Vitek2): S | MIC interpretation category ([4]; isolate 5520, Vitek2): S | MIC interpretation category ([4]; isolate 5522, Vitek2): S | MIC interpretation category ([4]; isolate 5524, Vitek2): S | MIC interpretation category ([4]; isolate 5529, Vitek2): S | MIC interpretation category ([4]; isolate PA14, Vitek2): S

NC[C@H]1O[C@H](O[C@H]2[C@H](O)[C@@H](O[C@H]3O[C@H](CO)[C@@H](O)[C@H](N)[C@H]3O)[C@H](N)C[C@@H]2N)[C@H](N)C[C@@H]1O [tobramycin]
biofilm response ([2]; isolate 5497): ✓ (Biofilms were categorized as responsive (✓) if a consistent increase in the fraction of red and yellow (colocalized) fluorescenct biovolume (reaching ~ 80% of the total biovolume) within a given antibiotic concentration range was detected.) | biofilm response ([2]; isolate 5520): ✓ (Biofilms were categorized as responsive (✓) if a consistent increase in the fraction of red and yellow (colocalized) fluorescenct biovolume (reaching ~ 80% of the total biovolume) within a given antibiotic concentration range was detected.) | biofilm response ([2]; isolate PA14): ✓ (Biofilms were categorized as responsive (✓) if a consistent increase in the fraction of red and yellow (colocalized) fluorescenct biovolume (reaching ~ 80% of the total biovolume) within a given antibiotic concentration range was detected.) | fraction of the RY biovolume of the total biovolume ([2]; strain 5529 at 512 μg ml−1): ~80% | fraction of the RY (red+yellow) biovolume of the total biovolume ([2]; strains PA14, 5497 and 5520, increasing concentrations, 2-512 μg ml−1): ~80% | change in CFUs ([3]; strains 5522, 5524 and 5529, low antibiotic concentrations): minor decrease | CFU counts ([3]; strains PA14, 5497 and 5520, increasing concentrations): ≤ 10^5 cells per ml | MIC ([4]; isolate 5497, planktonic): ≤ 0.25 µg/mL | MIC ([4]; isolate 5520, planktonic): 1 µg/mL (≈ 2.14 µM) | MIC ([4]; isolate 5522, planktonic): > 32 µg/mL | MIC ([4]; isolate 5524, planktonic): 1 µg/mL (≈ 2.14 µM) | MIC ([4]; isolate 5529, planktonic): > 32 µg/mL | MIC ([4]; isolate PA14, planktonic): 1 µg/mL (≈ 2.14 µM) | MIC interpretation category ([4]; isolate 5497, Vitek2): S | MIC interpretation category ([4]; isolate 5520, Vitek2): S | MIC interpretation category ([4]; isolate 5522, Vitek2): R | MIC interpretation category ([4]; isolate 5524, Vitek2): S | MIC interpretation category ([4]; isolate 5529, Vitek2): R | MIC interpretation category ([4]; isolate PA14, Vitek2): S

CC(C)O [isopropanol]
fraction of green fluorescence in killed biofilm ([2]; biofilms of three clinical isolates, killing control): 10-20% | killing verified by CFU counts ([3]; biofilms of three clinical isolates): efficiently killed
